Reference: US9539256B2 (THE BOARD OF REGENTS OF THE UNIVERSITY OF TEXAS SYSTEM, priority 2012, dated 2017)
“Also recorded” adds a separate entry of the source.

Experiments:
EPAC1 = molecular target: T1, EPAC1 (Homo sapiens, UniProt O95398); assay: Rap1 activation assay in HEK293/EPAC1 cells; type: cell-based
T1 sequence (O95398 1-923): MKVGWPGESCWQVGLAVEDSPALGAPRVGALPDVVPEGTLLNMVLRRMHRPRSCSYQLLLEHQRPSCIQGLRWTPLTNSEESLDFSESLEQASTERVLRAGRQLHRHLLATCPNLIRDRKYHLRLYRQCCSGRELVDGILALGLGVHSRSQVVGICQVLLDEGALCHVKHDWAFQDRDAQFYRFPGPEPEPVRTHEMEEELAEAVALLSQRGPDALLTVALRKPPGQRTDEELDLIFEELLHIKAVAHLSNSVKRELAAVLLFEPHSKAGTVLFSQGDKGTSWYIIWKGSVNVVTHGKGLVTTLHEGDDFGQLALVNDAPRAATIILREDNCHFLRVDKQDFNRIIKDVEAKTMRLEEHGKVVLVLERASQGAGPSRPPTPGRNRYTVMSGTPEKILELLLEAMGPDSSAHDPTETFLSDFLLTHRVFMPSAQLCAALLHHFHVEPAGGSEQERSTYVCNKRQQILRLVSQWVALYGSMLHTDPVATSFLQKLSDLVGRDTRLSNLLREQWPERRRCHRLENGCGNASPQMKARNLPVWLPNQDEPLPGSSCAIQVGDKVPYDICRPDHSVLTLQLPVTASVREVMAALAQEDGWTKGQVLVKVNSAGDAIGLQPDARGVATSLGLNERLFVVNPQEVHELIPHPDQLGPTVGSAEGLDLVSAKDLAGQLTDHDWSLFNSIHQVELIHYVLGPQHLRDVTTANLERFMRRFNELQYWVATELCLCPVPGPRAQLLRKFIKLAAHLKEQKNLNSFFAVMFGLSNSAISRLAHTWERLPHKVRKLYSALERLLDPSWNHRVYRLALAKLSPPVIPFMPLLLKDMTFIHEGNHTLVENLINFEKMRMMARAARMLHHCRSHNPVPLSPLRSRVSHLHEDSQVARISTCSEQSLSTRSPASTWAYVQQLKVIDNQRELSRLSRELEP
Method: FIGS. 9A-9B. Effects of EPAC2-specific antagonists on 007-AM-mediated cellular activation of Rap1. […] GTP-bound Rap1 (Rap1GTP) obtained by a Ral-GDSRBD-GST pull-down assay and total cellular Rap1 were detected by immunoblotting with Rap1-specific antibody. […] At test was used to determine statistical significance (*P<0.05).
Cellular activation of Rap1 was determined by pull-down of lysates derived from human vascular smooth muscle cell and HEK293 cells stably expressing EPAC1 or EPAC2 employing Ral-GDS-RBD-GST affinity beads as described earlier (Mei and Cheng (2005) Molecular Biosystems 1: 325-331).

[1] = system: AsPC-1, BxPC-3, and PANC-1; assay: Transwell migration/invasion assay; type: cell-based; settings: pretreated with 10.0 μM for 24 hours; AsPC-1, BxPC-3, PANC-1
Method: The top chamber of 8 micron inserts (Costar Inc) were coated with BD Matrigel™ Basement Membrane Matrix ([…]). Cells (2×10^5) pretreated with 10.0 μM of ESI-09 for 24 hours were added to the top chamber of the inserts in serum free RPMI medium containing 0.25% BSA. The bottom chamber was filled with 600.0 μL of RPMI containing 10% FBS and 10.0 μM ESI-09. The cells were then incubated at 37° C. in 5% CO2 for 20 hours. Cells were removed from the top chamber and migrated cells were fixed in methanol and stained with crystal violet. The number of migrated cells were counted from four different fields.

EPAC2 = molecular target: T2, EPAC2 (Homo sapiens, UniProt Q8WZA2); assay: Phosphorylation of Akt in HEK293/EPAC2 cells; type: cell-based; settings: 10 μM for 5 min before 007-AM
T2 construct: HEK293 cells that ectopically express full-length EPAC2 proteins; expressed in transfected cells; host or cells: HEK293
Method: FIG. 10. Effect of ESI-09 on EPAC-mediated PKB phosphorylation in HEK293/EPAC1, HEK293/EPAC2, and human vascular smooth muscle (hVSMC) cells. Serum-starved HEK293/EPAC1, HEK293/EPAC2, and hVSMC cells with or without pretreatment of […] ESI-09 were stimulated with 10 μM 007-AM. Cell lysates were subjected to Western blot analysis as described under “Experimental Procedures” using anti-phospho-Ser473-specific (PKB-P473) and anti-phospho-Thr308-specific (PKB-P308) PKB antibodies.
Cellular proteins from cell lysates treated with various reagents were separated by SDS-PAGE and transferred to polyvinylidene difluoride membrane. The levels of Akt activation were probed by immuno-blotting analyses using anti-phosphate T308 PKB antibodies (1:1000) and anti-phosphate S473 PKB antibodies (1:1000). At least three independent experiments were performed for each Western blot.

type I PKA holoenzyme = assay: PKA counter screening, type I holoenzyme; type: biochemical; settings: 25 μM compound
Method: Kinase activity of the type I and II PKA holoenzyme are measured spectrophotometrically in a 96-well plate with a coupled enzyme assay as described previously (Cook et al. (1982) Biochemistry 21: 5794-5799). In this assay, the formation of ADP is coupled to the oxidation of NADH by the pyruvate kinase/lactate dehydrogenase reactions so the reaction rate can be determined by following the oxidation of NADH, reflected by a decrease in absorbance at 340 nm. […] Reactions are pre-equilibrated at room temperature and initiated by adding the Kemptide substrate (final concentration 0.26 mM).

T2 sequence (Q8WZA2 whole entry, species assumed): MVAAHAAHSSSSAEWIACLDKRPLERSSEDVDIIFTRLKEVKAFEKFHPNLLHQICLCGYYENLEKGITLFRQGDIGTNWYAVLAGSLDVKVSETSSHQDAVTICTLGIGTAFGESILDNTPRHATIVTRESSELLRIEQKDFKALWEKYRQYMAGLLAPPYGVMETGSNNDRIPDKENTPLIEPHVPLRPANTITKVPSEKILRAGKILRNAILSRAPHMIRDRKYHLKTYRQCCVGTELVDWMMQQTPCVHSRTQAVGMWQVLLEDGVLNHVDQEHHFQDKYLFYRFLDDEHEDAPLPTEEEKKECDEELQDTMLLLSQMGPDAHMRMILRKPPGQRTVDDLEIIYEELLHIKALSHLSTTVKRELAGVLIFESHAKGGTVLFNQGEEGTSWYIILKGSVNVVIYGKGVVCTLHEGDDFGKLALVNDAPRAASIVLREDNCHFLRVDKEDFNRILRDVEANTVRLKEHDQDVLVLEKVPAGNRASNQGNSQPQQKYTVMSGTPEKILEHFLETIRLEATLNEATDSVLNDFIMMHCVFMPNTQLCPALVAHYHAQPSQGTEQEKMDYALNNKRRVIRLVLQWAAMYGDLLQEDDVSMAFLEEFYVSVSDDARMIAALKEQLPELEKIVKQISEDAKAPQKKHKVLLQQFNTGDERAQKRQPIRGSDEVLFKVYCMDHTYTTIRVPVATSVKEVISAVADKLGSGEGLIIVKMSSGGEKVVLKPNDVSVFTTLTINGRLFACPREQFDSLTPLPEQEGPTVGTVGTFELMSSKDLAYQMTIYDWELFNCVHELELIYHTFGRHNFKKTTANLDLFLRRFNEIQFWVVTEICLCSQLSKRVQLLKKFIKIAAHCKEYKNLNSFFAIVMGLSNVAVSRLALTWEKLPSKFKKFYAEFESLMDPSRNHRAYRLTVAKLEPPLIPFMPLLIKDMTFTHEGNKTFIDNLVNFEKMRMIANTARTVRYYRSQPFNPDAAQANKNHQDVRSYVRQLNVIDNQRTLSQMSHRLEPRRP

SMILES: CC(C)(C)c1cc(C(=O)C(C#N)=NNc2cccc(Cl)c2)no1 [ESI-09, 3-(5-Tert-Butyl-Isoxazol-3-Yl)-2-[(3-Chlorophenyl)-Hydrazono]-3-Oxo-Propionitrile]
- 007-AM induced Rap1 activation (EPAC1): effective
- cell migration, trans-well migration/invasion [1]: significant decrease; also recorded: significantly (P<0.05) decreased
- EPAC2-mediated Akt phosphorylation (T308 and S473) (EPAC2): completely blocked
- cAMP-induced type I PKA holoenzyme activation (type I PKA holoenzyme): did not significantly alter
